Laboratory results published in patent publication US20080289052A1, “Method of Constructing Animal Having Cancer Cells Transplanted Thereinto” (priority 2004, published 2008).

Tested on: cancer cells A-549
Experiment: Anti-tumor agent test in nude mice transplanted subcutaneously with an A-549 cancer cells sheet
Format: in vivo
Experimental: A cell culture base was coated with the temperature-responsive polymer poly(N-isopropylacrylamide) in an amount of 1.9 μg/cm^2 and the cancer cells A-549 was cultivated (2×10^4 cells were seeded; 37° C. in 5% CO2). Three days later, the cancer cells (A-549) on the culture base were confirmed to have become confluent; thereafter, a poly(vinylidene difluoride) [PVDF] membrane not coated with a fibrin gel was gently placed over the cultured cell sheet so that the cultured cancer cells adhered to it; then, the cell culture base was cooled at 20° C. for 60 minutes. After the cooling, a sheet of cancer cells (7 mm×17 mm×2 mm; 5×10^5 cells) was detached together with PVDF membrane. The back of each of 10 nude mice was incised linearly beneath the skin and the subcutaneous tissue was detached with forceps to create a pocket, into which the above-described cancer cells sheet was inserted. After the inserting, the incised part was sutured to complete the transplantation. The dimensions of the tumor that developed after the transplantation were measured over the skin with a micrometer and the volume of the tumor was calculated assuming that it was an ellipsoid. The volume of the tumor was also calculated, this time on the assumption that it was a cylindroid (volume of cylindroid=n/4×major axis of the tumor×minor axis of the tumor×thickness of the tumor). Four weeks after the transplantation, the mean volume of ellipsoid was 578.7+322.8 mm^3, the mean volume of cylindroid was 1258.7+897.9 mm^3, and the mean tumor weight was 785.4±394 mg. The decrease in the tumor volume that occurred immediately after the transplantation as shown in FIG. 1 (tumor assumed as an ellipsoid) and FIG. 2 (as a cylindroid) was absent and the tumor grew bigger as more days elapsed after the transplantation.
The cancer cells transplanted animals prepared in Example 2 were administered a total of four times on a once-a-week basis with 3 mg of 5-fluorouracil (5-FU), a known anti-tumor agent, through the tail vein as it was dissolved in 0.3 ml of 1% ethyl alcohol containing physiological saline. Four weeks after the administration, the mean volume of ellipsoid was 279.6±127.1 mm^3, the mean volume of cylindroid was 619.3±262.9 mm^3, and the mean tumor weight was 369.3±123 mg. As it turned out, the cancer cells transplanted animals described in the present invention got the volume and weight of the tumor to be reduced by receiving the anti-tumor agent. Obviously, the cancer cells transplanted animals of the present invention are useful in selecting an effective anti-tumor agent.

[1] = A-549 cell sheet transplanted nude mice of Example 2, 3 mg through the tail vein once a week, four times, four weeks after the administration

O=c1[nH]cc(F)c(=O)[nH]1 [5-fluorouracil]
mean tumor weight [1]: 369.3 ± 123 mg
mean volume of cylindroid (tumor volume) [1]: 619.3±262.9 mm^3
mean volume of ellipsoid (tumor volume) [1]: 279.6±127.1 mm^3
volume and weight of the tumor (effect of receiving the anti-tumor agent) (A-549 cell sheet transplanted nude mice, compared with untreated animals of Example 2): reduced
